Laboratory results taken from patent US20110033525A1, “Diterpene Glycosides as Natural Solubilizers” (priority 2008, published 2011).
≈ marks a conversion by molar mass, not a printed value. Values belong to the molecule of their own block, whether it stands above or below them.

Key:
[1] = cited from earlier work; for Water solubility in words: The Merck Index (1996) or Material Safety Data Sheets; for Aqueous drug concentration, AQUEOUS SOLUTION: Table 8, without rubusoside, same values as published ones of Table 1
[2] = physchem; conditions: for Aqueous drug concentration, 10% RUBUSOSIDE: Table 8, 10% w/v rubusoside (SFA) water solution
Protocol: Solubility test methods: A compound with low solubility was selected and weighed into multiple centrifuge tubes. Each experimental tube received a known amount of the solubilizing agent being tested. The control tubes remained only with the compound. The same volume, 1 mL, unless otherwise indicated, of deionized and distilled water was added to each tube. Alternatively, a set percentage of water solutions containing the solubilizer to be tested (e.g., 5% w/v or 10% w/v) were prepared separately. In these cases, the solubilizer-water solutions were added directly to the tubes containing the low-solubility compound. The tubes were then vortexed briefly and then sonicated for 60 min at temperature of 50° C. unless otherwise indicated. After sonication, the tubes were placed on an orbital shaker at a speed of 80 rpm in an incubator set at 25° C. for at least 24 hr. The tubes were then centrifuged at 4000 rpm for 10 min. The supernatant solution was passed through a 0.2 μm or 0.45 μm filter and analyzed for the concentration of the low-solubility compound, and sometimes the solubilizing compound, by HPLC or UV-Vis spectrophotometer.
The system was computer controlled, and the results were analyzed using Empower software. Calibrations curves were constructed using known concentrations of the compounds and were used to quantify the concentrations of the compounds dissolved in solution. A more complete description of the HPLC procedure for some of the diterpene glycosides is found in G. Chou et al., “Quantitative and fingerprint analyses of Chinese sweet tea plant (Rubus suavissimus S. Lee),” J. Agric. Food Chem., vol.
The ratio of peak areas was used to calculate the increase in water solubility in the absence or presence of solubilizers.

[3] = Estimated safe daily consumption of steviol glycosides
Text: Some diterpene glycosides have been approved by the FDA as sweeteners (e.g., rebaudioside A).

[4] = 25 °C, aqueous with cosolvent or surfactant or cyclodextrin, thermodynamic from solid, Solubility in water with solubilizer
[5] = 25 °C, aqueous with cosolvent or surfactant or cyclodextrin, thermodynamic from solid, Solubility in water with solubilizer, natural solubilizer (rubusoside) 10% w/v (100 mg in 1 ml)

SMILES: C[C@@H]1O[C@@H](OC[C@H]2O[C@@H](Oc3c(-c4ccc(O)c(O)c4)oc4cc(O)cc(O)c4c3=O)[C@H](O)[C@@H](O)[C@@H]2O)[C@H](O)[C@H](O)[C@H]1O [Rutin]
Water solubility in words [1]: nearly insoluble | solubility [2, 4]: 1750 µg/mL (≈ 2.87 mM)

SMILES: C[C@@H]1[C@H](O)[C@@H](C)/C=C/C=C/CC/C=C/C=C/C=C/C=C/C(O[C@H]2O[C@H](C)[C@@H](O)[C@H](N)[C@@H]2O)CC2O[C@](O)(CC(O)C(O)CCC(O)CC(O)CC(O)CC(=O)O[C@H]1C)CC(O)C2C(=O)O (stereo partly shown) [Nystatin, reference compound]
Aqueous drug concentration, AQUEOUS SOLUTION [1]: 66 µg/mL | Aqueous drug concentration, 10% RUBUSOSIDE [2]: 1,100 μg/ml

SMILES: O=C(O)c1cc(O)c(O)c(O)c1 [Gallic acid]
Solubility increase factor [2]: 9.6 | Amount dissolved in 1 ml water ([2]; 400 mg rubusoside, 25° C.): 106 mg | Amount dissolved in 1 ml water ([2]; 800 mg rubusoside, 37° C.): 212 mg | Fold increase over amount dissolved in plain water ([2]; 800 mg rubusoside, 37° C.): 19.3 fold | solubility [2, 4]: 106000 µg/mL (≈ 623 mM)

SMILES: COc1cc([C@@H]2c3cc4c(cc3[C@H](O)[C@H]3COC(=O)[C@H]23)OCO4)cc(OC)c1OC [Podophyllotoxin, reference compound]
Water solubility in words [1]: nearly insoluble | solubility ([2]; 25 °C, aqueous with cosolvent or surfactant or cyclodextrin, thermodynamic from solid): 919 µg/mL (≈ 2.22 mM)

SMILES: Cc1ccc(-c2cc(C(F)(F)F)nn2-c2ccc(S(N)(=O)=O)cc2)cc1 [Celecoxib, reference compound]
Concentration in water without rubusoside (control sample) [2]: not detected | Solubility increase factor [2]: Many | solubility [2, 4]: 488 µg/mL (≈ 1.28 mM)

SMILES: COc1cc(CNC(=O)CCCC/C=C/C(C)C)ccc1O [Capsaicin, reference compound]
Concentration in water without rubusoside (control sample) [2]: 57 µg/mL | Solubility increase factor [2]: 86 | Concentration dissolved in rubusoside water solution ([2]; 20 mg rubusoside in 1 ml water): 589 µg/mL | solubility [2, 5]: 4920 µg/mL (≈ 16.1 mM) | solubility ([2]; 25 °C, water, thermodynamic from solid, Solubility): 57 µg/mL (≈ 0.187 mM)

SMILES: CC(C)c1cccc(C(C)C)c1O [Propofol, reference compound]
Concentration in water without rubusoside (control sample) [2]: no measurable propofol | Solubility increase factor [2]: 74 | solubility [2, 4]: 11700 µg/mL (≈ 65.6 mM)

SMILES: C[C@@H]1[C@H](O)[C@@H](C)/C=C/C=C/C=C/C=C/C=C/C=C/C=C/[C@H](O[C@@H]2O[C@H](C)[C@@H](O)[C@H](N)[C@@H]2O)C[C@@H]2O[C@](O)(C[C@@H](O)C[C@@H](O)[C@H](O)CC[C@@H](O)C[C@@H](O)CC(=O)O[C@H]1C)C[C@H](O)[C@H]2C(=O)O [Amphotericin B, reference compound]
Aqueous drug concentration, AQUEOUS SOLUTION [1]: 82 µg/mL | Aqueous drug concentration, 10% RUBUSOSIDE [2]: 200 µg/mL

SMILES: C=C1C[C@@]23CC[C@H]4[C@@](C)(CCC[C@@]4(C)C(=O)O[C@@H]4O[C@H](CO)[C@@H](O)[C@H](O)[C@H]4O)[C@@H]2CC[C@]1(O[C@@H]1O[C@H](CO)[C@@H](O)[C@H](O)[C@H]1O)C3 [rubusoside, b-D-glucosyl ester of 13-O-b-D-glucosyl-steviol]
Water solubility [2]: about 60 g/100 mL water | solubility ([2]; 25 °C, water, Solubility in water): ~400000 µg/mL (≈ 622 mM) | solubility ([2]; 37 °C, water, Solubility in water): ~800000 µg/mL (≈ 1240 mM) | Daily consumption that is safe and has no adverse effect [3]: 8 mg rubusoside/kg body weight | No-observed-effect level ([3]; estimate based on 383 mg/kg expressed as steviol): up to 766 mg rubusoside/kg body weight

SMILES: Cc1coc2c1C(=O)C(=O)c1c-2ccc2c1CCCC2(C)C [Tanshinone IIA]
Water solubility in words [1]: nearly insoluble | solubility [2, 5]: ~53.3 µg/mL (≈ 0.181 mM) | solubility ([2]; 25 °C, aqueous with cosolvent or surfactant or cyclodextrin, thermodynamic from solid, Solubility in water with solubilizer, natural solubilizer (rubusoside) 20% w/v (200 mg in 1 ml)): ~128 µg/mL (≈ 0.434 mM)

Second part, led by results:

Solubility increase factor [2]: 92 | solubility [2, 4]: 240 µg/mL (≈ 0.263 mM)
SMILES: CO[C@H]1C[C@@H]2CC[C@@H](C)[C@@](O)(O2)C(=O)C(=O)N2CCCC[C@H]2C(=O)O[C@H]([C@H](C)C[C@@H]2CC[C@@H](O)[C@H](OC)C2)CC(=O)[C@H](C)/C=C(\C)[C@@H](O)[C@@H](OC)C(=O)[C@H](C)C[C@H](C)/C=C/C=C/C=C/1C [Rapamycin (Sirolimus), Rapamycin, reference compound]
Water solubility in words [1]: insoluble

Solubility in water with solubilizer [2]: 111 µg/mL | Solubility increase factor [2]: 1110 | solubility [2, 4]: 111 µg/mL (≈ 0.129 mM)
SMILES: COC1=C(OC)C(=O)C(C/C=C(\C)CC/C=C(\C)CC/C=C(\C)CC/C=C(\C)CC/C=C(\C)CC/C=C(\C)CC/C=C(\C)CC/C=C(\C)CC/C=C(\C)CCC=C(C)C)=C(C)C1=O [Coenzyme Q10]

Solubility increase factor [2]: 5 | solubility [2, 4]: 280 µg/mL (≈ 0.992 mM)
SMILES: C[C@@H]1CC[C@H]2[C@@H](C)C(=O)O[C@@H]3O[C@@]4(C)CC[C@@H]1[C@]32OO4 [Artemisinin, reference compound]

Solubility increase factor [2]: 11 | solubility [2, 4]: 5330 µg/mL (≈ 7.27 mM)
SMILES: CC[C@H]1OC(=O)[C@H](C)[C@@H](O[C@H]2C[C@@](C)(OC)[C@@H](O)[C@H](C)O2)[C@H](C)[C@@H](O[C@@H]2O[C@H](C)C[C@H](N(C)C)[C@H]2O)[C@](C)(O)C[C@@H](C)C(=O)[C@H](C)[C@@H](O)[C@]1(C)O [Erythromycin, reference compound]

Concentration in water without rubusoside (control sample) [2]: not detected | Solubility in water with solubilizer [2]: 21 µg/mL | Solubility increase factor [2]: Many
SMILES: CCC(C)n1ncn(-c2ccc(N3CCN(c4ccc(OCC5COC(Cn6cncn6)(c6ccc(Cl)cc6Cl)O5)cc4)CC3)cc2)c1=O (stereo not shown) [Itraconazole, reference compound]

Solubility increase factor [2]: Many | solubility [2, 4]: 150 µg/mL (≈ 0.311 mM)
SMILES: COc1cc(C2Oc3cc([C@H]4Oc5cc(O)cc(O)c5C(=O)[C@@H]4O)ccc3OC2CO)ccc1O (stereo partly shown) [Silybin (Silibinin), Silybin]

Solubility in water with solubilizer [2]: 13,250 μg/mL | Solubility increase factor [2]: Many
SMILES: Cc1c(C)c2c(c(C)c1O)CC[C@@](C)(CCC[C@H](C)CCC[C@H](C)CCCC(C)C)O2 [Alpha-Tocopherol (VE), Alpha-tocopherol]
